Here are results for 19 molecules from patent publication US8217073B2, “Pyrrole derivatives as therapeutic compounds” (Myrexis, Inc., priority 2005, dated 2012).

The test system of assay [1] is Aβ42 secretion. In words: Aβ42 secretion by H4 cells expressing APP695, sandwich ELISA. To be noted: medium collected at 24 or 48 hours, several numbers = independent sets of assays; for % Inhibition of Aβ42 Secretion @ 100 μM / inhibition at 100 µM: test compound 100 μM vs DMSO control; for IC50: about 1 μM to about 100 μM. It counts as cell-based, human. The procedure: (§1) The present invention provides compositions and methods for lowering Aβ42 levels. To test whether compounds and compositions are capable of modulating Aβ levels in cultured cells, sandwich enzyme-linked immunosorbent assays (ELISAs) are employed to measure secreted Aβ (Aβ42 and/or Aβ40 levels). In this example, H4 cells expressing wide type APP695 are seeded at 200,000 cells per well in 6 well plates, and incubated at 37° C. with 5% CO2 overnight. Cells are treated with 1.5 ml medium containing vehicle (DMSO) or a test compound at 1.25 μM, 2.5 μM, 5.0 μM and 10.0 μM (as well as other concentration if desirable) for 24 hours or 48 hours. The supernatant from treated cells is collected into eppendorf tubes and frozen at −80° C. for future analysis.
(§2) The amyloid peptide standard is reconstituted and frozen samples are thawed. The samples and standards are diluted with appropriate diluents and the plate is washed 4 times with Working Wash Buffer and patted dry on a paper towel. 100 μL per well of peptide standards, controls, and dilutions of samples to be analyzed is added. The plate is incubated for 2 hours while shaking on an orbital plate shaker at RT. The plate is then washed 4 times with Working Wash Buffer and patted dry on a paper towel. Detection Antibody Solution is poured into a reservoir and 100 μL/well of Detection Antibody Solution is immediately added to the plate. The plate is incubated at RT for 2 hours while shaking and then washed four times with Working Wash Buffer and patted dry on a paper towel. Secondary Antibody Solution is then poured into a reservoir and 100 μL/well of Secondary Antibody Solution is immediately added to the plate. The plate is incubated at RT for 2 hours with shaking, washed 5 times with Working Wash Buffer, and patted dry on a paper towel.
(§3) 100 μL of stabilized chromogen is added to each well and the liquid in the wells begins to turn blue. The plate is incubated for 30 minutes at room temperature and in the dark. 100 μL of stop solution is added to each well and the plate is tapped gently to mix resulting in a change of solution color from blue to yellow. The absorbance of each well is read at 450 nm having blanked the plate reader against a chromogen blank composed of 100 μL each of stabilized chromogen and stop solution. The plate is read within 2 hours of adding the stop solution. The absorbance of the standards is plotted against the standard concentration and the concentrations of unknown samples and controls are calculated.
(§4) The present invention provides compositions and methods for lowering Aβ42 levels. To test whether compounds and compositions are capable of modulating Aβ levels, sandwich enzyme-linked immunosorbent assays (ELISAs) is employed to measure secreted Aβ42 and/or Aβ40 levels. In this example, H4 cells expressing wide type APP695 are seeded at 200,000 cells per well in 6 well plates, and incubated at 37° C. with 5% CO2 overnight. Cells are treated with 1.5 mL medium containing vehicle (DMSO) or a test compound at 1.25 μM, 2.5 μM, 5.0 μM and 10.0 μM concentration for 24 hours or 48 hours. The supernatant from treated cells is collected into eppendorf tubes and frozen at −80° C. for future analysis.
(§5) 130 μL per well of samples, standards, and blanks is added to a 96-well polypropylene plate. […] of samples, standards, and blanks from the polypropylene plate is added to the antibody-coated plates. The strip-holder with the appropriate number of strips is applied to the antibody-coated plates and the strips are covered with an adhesive sealer. The plate is then incubated 3 hours at room temperature while shaking on an orbital plate shaker.
(§6) The first antibody solution is prepared with Conjugate Diluent 1 at 1:100 ratio. Each well of the antibody-coated plates is washed 5 times with 400 μL washing solution and 100 μL of the prepared first antibody solution is added to each well. […]
Background: An ELISA detects its analyte on a solid surface through an enzyme-linked reagent.

Assay [2] relates to Aβ40 secretion. The experiment in a line: Aβ40 secretion by H4 cells expressing APP695, sandwich ELISA. It counts as cell-based, human. To be noted: medium collected at 24 or 48 hours, several numbers = independent sets of assays; for IC50: about 1 μM to about 100 μM; for inhibition at 100 µM / % Inhibition of Aβ40 Secretion @ 100 μM: test compound 100 μM vs DMSO control. The method, then:
as §1, §2, §3, §4, §5, §6

Where “and” joins values, the source holds several entries; their conditions need not be identical. Identical values can stand only once. A value given as a limit tells only on which side of the number the result lay.

Broadly, the IC50 is the concentration that inhibits the measured activity by half. The low end stands for greater potency, the high end for weaker potency. As for `Cc1c(-c2ccccc2)cc(-c2ccccc2)n1-c1ccc(CCCC(=O)O)cc1` [Compound 1, 4-[4-(2-Methyl-3,5-diphenyl-pyrrol-1-yl)-phenyl]-butyric acid], the “% Inhibition of Aβ42 Secretion @ 100 μM” value in assay [1] is 101% and 99% and 78%. In addition, the IC50 was over 100 µM in assay [2] (Homo sapiens) and 67 µM in assay [2].

What is called inhibition is the share of the control response that was lost under treatment. The low end stands for a weak effect, the high end for a strong effect. `Cc1c(-c2ccccc2)cc(-c2ccccc2)n1-c1cccc(C(=O)O)c1` [Compound 2, 3-(2-Methyl-3,5-diphenyl-pyrrol-1-yl)-benzoic acid]: in assay [1] (Homo sapiens), the IC50 was determined as 48 µM and testing at 100 µM gave an inhibition of 76%. In assay [2] (Homo sapiens), this molecule showed an IC50 of over 100 µM and an inhibition at 100 µM of 36%.

Consider `Cc1c(-c2ccccc2)cc(-c2ccccc2)n1-c1ccc(Cl)c(C(=O)O)c1` [Compound 3, 2-Chloro-5-(2-methyl-3,5-diphenyl-pyrrol-1-yl)-benzoic acid], for which the IC50 is 37 µM in assay [1] (Homo sapiens) and 98 µM in assay [2] (Homo sapiens). Moreover, the inhibition at 100 µM in assay [1] (Homo sapiens) stood at 89%; in assay [2] (Homo sapiens), 52%.

In assay [1] (Homo sapiens), `COc1ccc(C(=O)O)cc1-n1c(-c2ccccc2)cc(-c2ccccc2)c1C` [Compound 4, 4-Methoxy-3-(2-methyl-3,5-diphenyl-pyrrol-1-yl)-benzoic acid] showed an IC50 of 29 µM and an inhibition at 100 µM of 84%. In addition, in assay [2] (Homo sapiens), the IC50 is over 100 µM and the inhibition at 100 µM turned out to be 22%.

For the molecule `Cc1c(-c2ccccc2)cc(-c2ccccc2)n1-c1cccc(CCC(=O)O)c1` [Compound 5, 3-[3-(2-Methyl-3,5-diphenyl-pyrrol-1-yl)-phenyl]-propionic acid], in assay [1] (Homo sapiens), the IC50 was 100 µM and the inhibition at 100 µM was found to be 55%. In assay [2] (Homo sapiens), this molecule had an IC50 of over 100 µM and an inhibition at 100 µM of 31%.

With `O=C(O)c1cccc(-n2cc(-c3ccccc3)cc2-c2ccccc2)c1` [Compound 6, 3-(2,4-Diphenyl-pyrrol-1-yl)-benzoic acid], the IC50 is 30 µM in assay [1] (Homo sapiens) and over 100 µM in assay [2] (Homo sapiens). Also, the values for the inhibition at 100 µM in assay [1] (Homo sapiens) and in assay [2] (Homo sapiens) were 74% and 32%, respectively.

On to `O=C(O)CCCc1ccc(-n2cc(-c3ccccc3)cc2-c2ccccc2)cc1` [Compound 7, 4-[4-(2,4-Diphenyl-pyrrol-1-yl)-phenyl]-butyric acid], for which, in assay [1] (Homo sapiens), it took 52 µM to reach half-maximal inhibition (IC50) and the inhibition at 100 µM stood at 76%. In assay [2] (Homo sapiens), this molecule came in with an IC50 of over 100 µM and an inhibition at 100 µM of 7%.

With `Cc1c(-c2cccc(C(F)(F)F)c2)cc(-c2ccccc2)n1-c1cccc(C(=O)O)c1` [Compound 8, 3-[2-Methyl-5-phenyl-3-(3-trifluoromethyl-phenyl)-pyrrol-1-yl]-benzoic acid], in assay [1] (Homo sapiens), testing at 100 µM gave an inhibition of 94%. Also, the “% Inhibition of Aβ42 Secretion @ 100 μM” value in assay [1] was found to be 80%. In assay [2], the “% Inhibition of Aβ40 Secretion @ 100 μM” value was 88% and 64%.

Regarding `Cc1c(-c2cccc(C(F)(F)F)c2)cc(-c2ccccc2)n1-c1cccc(CCC(=O)O)c1` [Compound 9, 3-{3-[2-Methyl-5-phenyl-3-(3-trifluoromethyl-phenyl)-pyrrol-1-yl]-phenyl}-propionic acid], in assay [1] (Homo sapiens), the IC50 amounted to 15 µM and the inhibition at 100 µM turned out to be 82%. In addition, in assay [2] (Homo sapiens), the IC50 is 28 µM and the inhibition at 100 µM was 86%.

With `Cc1c(-c2cccc(C(F)(F)F)c2)cc(-c2ccccc2)n1-c1ccc(CCCC(=O)O)cc1` [Compound 10, 4-{4-[2-Methyl-5-phenyl-3-(3-trifluoromethyl-phenyl)-pyrrol-1-yl]-phenyl}-butyric acid], the IC50 in assay [1] (Homo sapiens) was 15 µM; in assay [2] (Homo sapiens), 11 µM. Moreover, the inhibition at 100 µM in assay [1] (Homo sapiens) was found to be 79%; in assay [2] (Homo sapiens), 97%.

The molecule `CCc1c(-c2ccccc2)cc(-c2ccccc2)n1-c1cccc(C(=O)O)c1` [Compound 11, 3-(2-Ethyl-3,5-diphenyl-pyrrol-1-yl)-benzoic acid] had an inhibition at 100 µM in assay [1] (Homo sapiens) of 92%. The “% Inhibition of Aβ42 Secretion @ 100 μM” value in assay [1] was 94% and 78%. Also, the IC50 in assay [2] (Homo sapiens) was over 100 µM; in assay [2], 69 µM and 68 µM.

In assay [1] (Homo sapiens), `CCc1c(-c2ccccc2)cc(-c2ccccc2)n1-c1cccc(CCC(=O)O)c1` [Compound 12, 3-[3-(2-Ethyl-3,5-diphenyl-pyrrol-1-yl)-phenyl]-propionic acid] came in with an IC50 of 34 µM and an inhibition at 100 µM of 85%. In assay [2] (Homo sapiens), this molecule showed an IC50 of over 100 µM and an inhibition at 100 µM of 27%.

In assay [1] (Homo sapiens), `CCc1c(-c2ccccc2)cc(-c2ccccc2)n1-c1ccc(CCCC(=O)O)cc1` [Compound 13, 4-[4-(2-Ethyl-3,5-diphenyl-pyrrol-1-yl)-phenyl]-butyric acid] showed an IC50 of 12 µM and an inhibition at 100 µM of 83%. In assay [2] (Homo sapiens), this molecule displayed an IC50 of over 100 µM and an inhibition at 100 µM of 14%.

For the molecule `Cc1c(-c2ccccc2)cc(-c2ccc(C(F)(F)F)cc2)n1-c1cccc(C(=O)O)c1` [Compound 14, 3-[2-Methyl-3-phenyl-5-(4-trifluoromethyl-phenyl)-pyrrol-1-yl]-benzoic acid], in assay [1] (Homo sapiens), the inhibition at 100 µM came out at 96%. In addition, the “% Inhibition of Aβ42 Secretion @ 100 μM” value in assay [1] was 101% and 99% and 92%.

As for `Cc1c(-c2ccccc2)cc(-c2ccc(C(F)(F)F)cc2)n1-c1cccc(CCC(=O)O)c1` [Compound 15, 3-{3-[2-Methyl-3-phenyl-5-(4-trifluoromethyl-phenyl)-pyrrol-1-yl]-phenyl}-propionic acid], in assay [1] (Homo sapiens), it took 21 µM to reach half-maximal inhibition (IC50) and the inhibition at 100 µM was determined as 96%. In assay [2] (Homo sapiens), half-maximal inhibition (IC50) required 82 µM and 100 µM produced 63% inhibition.

In assay [1] (Homo sapiens), `Cc1c(-c2ccccc2)cc(-c2ccc(C(F)(F)F)cc2)n1-c1ccc(CCCC(=O)O)cc1` [Compound 16, 4-{4-[2-Methyl-3-phenyl-5-(4-trifluoromethyl-phenyl)-pyrrol-1-yl]-phenyl}-butyric acid] gave an IC50 of 5 µM and an inhibition at 100 µM of 97%. Moreover, in assay [1], the IC50 is 10 µM and the “% Inhibition of Aβ42 Secretion @ 100 μM” value worked out at 102%. This molecule also displayed an inhibition at 100 µM in assay [2] (Homo sapiens) of 78%. For the same molecule, the “% Inhibition of Aβ40 Secretion @ 100 μM” value in assay [2] amounted to 93%.

`Cc1c(-c2ccccc2)cc(-c2ccc(Cl)c(Cl)c2)n1-c1cccc(C(=O)O)c1` [Compound 17, 3-[5-(3,4-Dichloro-phenyl)-2-methyl-3-phenyl-pyrrol-1-yl]-benzoic acid]: in assay [1] (Homo sapiens), the IC50 stood at 10 µM and the inhibition at 100 µM was 83%. In addition, in assay [2] (Homo sapiens), the IC50 was over 100 µM and 100 µM produced 10% inhibition.

In assay [1] (Homo sapiens), `Cc1c(-c2ccccc2)cc(-c2ccc(Cl)c(Cl)c2)n1-c1cccc(CCC(=O)O)c1` [Compound 18, 3-{3-[5-(3,4-Dichloro-phenyl)-2-methyl-3-phenyl-pyrrol-1-yl]-phenyl}-propionic acid] came in with an IC50 of 10 µM and an inhibition at 100 µM of 94%. In assay [2] (Homo sapiens), this molecule showed an IC50 of over 100 µM and an inhibition at 100 µM of 41%.

`Cc1c(-c2ccccc2)cc(-c2ccc(Cl)c(Cl)c2)n1-c1ccc(CCCC(=O)O)cc1` [Compound 19, 4-{4-[5-(3,4-Dichloro-phenyl)-2-methyl-3-phenyl-pyrrol-1-yl]-phenyl}-butyric acid]: 100 µM produced 95% inhibition in assay [1] (Homo sapiens). In assay [1], the “% Inhibition of Aβ42 Secretion @ 100 μM” value is 109%. For the same molecule, the IC50 in assay [2] (Homo sapiens) is over 100 µM; in assay [2], 65 µM. Moreover, the “% Inhibition of Aβ40 Secretion @ 100 μM” value in assay [2] is 42% and 78%.
